Assay results published in patent US6251882A, “Alkyl ketones as potent anti-cancer agents” (Parker Hughes Institute, priority 1999, dated 2001).
Residues, ends and D or L forms follow the SMILES beside them. *: point of attachment. Farnesyl = CC(C)=CCC/C(C)=C/CC/C(C)=C/C*; Boc = CC(C)(C)OC(=O)*; CHN2 = [N-]=[N+]=C*

Legend:
PC-3 (prostate cancer) = experiment: MTT cytotoxicity assay, PC-3; assay type: cell-based; conditions: 24-36 hours at 37° C., 0.1 to 250 μM
Description: (§1) Cytotoxicity of various compounds against tumor cells was performed using the MTT (3-[4,5-[…]]-2,5-diphenyl tetrazolium bromide) assay (Boehringer Mannheim Corp., Indianapolis, Ind.). Unless otherwise specified, all cell lines were obtained from the American Type Culture Collection (ATCC). Briefly, exponentially growing cells were seeded into a 96-well plate at a density of 2.5×10^4 cells/well and incubated for 36 hours at 37° C. prior to drug exposure. On the day of treatment, culture medium was carefully aspirated from the wells and replaced with fresh medium containing the indicated compound at concentrations ranging from 0.1 to 250 μM. Triplicate wells were used for each treatment.
(§2) The cells were incubated with the various compounds for 24-36 hours at 37° C. in a humidified 5% CO2 atmosphere. To each well, 10 μl of MTT (0.5 mg/ml final concentration) was added and the plates were incubated at 37° C. for 4 hours to allow MTT to form formazan crystals by reacting with metabolically active cells. The formazan crystals were solubilized overnight at 37° C. in a solution containing 10% SDS in 0.01 M HCl. The absorbence of each well was measured in a microplate reader (Labsystems) at 540 nm and a reference wavelength of […]. To translate the OD540 values into the number of live cells in each well, the OD540 values were compared to those on standard OD540 --versus--cell number curves generated for each cell line. The percent survival was calculated using the formula: [formula]
(§3) The IC50 values were calculated by non-linear regression analysis and are shown below in Tables 1-6.

Nalm-6 (B-lineage ALL) = experiment: MTT cytotoxicity assay, Nalm-6; assay type: cell-based; conditions: Homo sapiens, 24-36 hours at 37° C., 0.1 to 250 μM
Description: as §1
(§4) Human leukemic cell lines (NALM-6, MOLT-3) glioblastoma cells (U373) and human breast tumor cell lines (BT20 and MDA-MB-231) were obtained from the American Type Culture Collection and maintained as a continuous cell line in Dulbecco's modified Eagles's medium supplemented with 10% fetal bovine serum and antibiotics.
as §2, §3

U-373 (glioblastoma) = experiment: MTT cytotoxicity assay, U-373; assay type: cell-based; conditions: Homo sapiens, U373 MG, 24-36 hours at 37° C., 0.1 to 250 μM
Description: as §1, §4, §2, §3

BT-20 (breast cancer) = experiment: MTT cytotoxicity assay, BT-20; assay type: cell-based; conditions: Homo sapiens, 24-36 hours at 37° C., 0.1 to 250 μM
Description: as §1, §4, §2, §3

Molt-3 (T-lineage ALL) = experiment: MTT cytotoxicity assay, Molt-3; assay type: cell-based, human; conditions: Homo sapiens, MOLT-3, MTT, 24-36 hours at 37° C., 0.1 to 250 μM
Description: as §1, §4, §2, §3

| Compound | IC50 (PC-3 (prostate cancer)) | IC50 (Nalm-6 (B-lineage ALL)) | IC50 (U-373 (glioblastoma)) | IC50 (BT-20 (breast cancer)) | IC50 (Molt-3 (T-lineage ALL)) |
| --- | --- | --- | --- | --- | --- |
| CCCCCCCCCCCCSC[C@H](NC(=O)OCC1c2ccccc2-c2ccccc21)C(=O)CCl [HI-398, N-9-Fluorenylmethyloxycarbonyl-S-dodecyl-cysteine chloromethyl ketone] | > 100 µM | 25.7 µM | > 100 µM | > 100 µM | 32.3 µM |
| CCCCCCCCCCCCSC[C@H](NC(C)=O)C(=O)CSc1c(F)c(F)c(F)c(F)c1F [HI-399] | 91.6 µM | 91.2 µM | > 100 µM | > 100 µM | 40.8 µM |
| CC(C)=CCC/C(C)=C/CC/C(C)=C/CSC[C@H](NC(=O)CNC(=O)OC(C)(C)C)C(=O)C=[N+]=[N-] [HI-401, N-Boc-Gly-S-trans-trans-farnesyl-Cys diazomethyl ketone] (Boc-Gly-Cys(Farnesyl)-CHN2) | 90.6 µM | 51.3 µM | > 100 µM | 95.1 µM | 84.5 µM |
| C=CCSC[C@H](NC(C)=O)C(=O)CCl [HI-419, N-Ac-S-allyl-cysteine chloromethyl ketone] | > 100 µM | 4.3 µM | 56.7 µM | 55.7 µM | 7.3 µM |
| CCCCCCCCCCCCSC[C@H](NC(C)=O)C(=O)CBr [HI-488, N-Ac-S-dodecyl-cysteine bromomethyl ketone] | 39.6 µM | 1.3 µM | 22.5 µM | 33.8 µM | 3.19 µM |
| CCCCCCCCCCCCOC[C@H](NC(C)=O)C(=O)CCl [HI-489, N-Ac-O-dodecyl-serine chloromethyl ketone] | > 100 µM | 3.8 µM | > 100 µM | > 100 µM | 15.3 µM |
| CCCCCCCCCCCCSC[C@H](NC(=O)C(F)(F)F)C(=O)CCl [HI-490, N-Trifluoroacetyl-S-dodecyl-cysteine chloromethyl ketone] | > 100 µM | 32.6 µM | > 100 µM | > 100 µM | 41.3 µM |
| CCCCCCCCCCCCSC[C@H](NC(=O)c1ccccc1)C(=O)CCl [HI-491, N-Benzoyl-S-dodecyl-cysteine chloromethyl ketone] | 52.1 µM | 5.4 µM | > 100 µM | > 100 µM | 6.5 µM |
